Test results taken from ChEMBL document CHEMBL5108027, “An unanticipated discovery of novel naphthalimidopropanediols as potential broad-spectrum antibacterial members” (Eur J Med Chem, 2022).
In brackets after ≈: the same amount, converted by molar mass.

Legend:
Type in all cases: functional
Enterococcus faecalis = assay: Antibacterial activity against Enterococcus faecalis measured by Muller-Hinton broth based microdilution assay
Klebsiella pneumoniae = assay: Antibacterial activity against Klebsiella pneumoniae measured by Muller-Hinton broth based microdilution assay
Staphylococcus aureus [1] = assay: Antibacterial activity against methicillin-resistant Staphylococcus aureus N315 measured by Muller-Hinton broth based microdilution assay
Escherichia coli [2] = assay: Antibacterial activity against Escherichia coli measured by Muller-Hinton broth based microdilution assay
Staphylococcus aureus [3] = assay: Antibacterial activity against Staphylococcus aureus measured by Muller-Hinton broth based microdilution assay
Staphylococcus aureus [4] = assay: Antibacterial activity against Staphylococcus aureus ATCC 29213 measured by Muller-Hinton broth based microdilution assay
Pseudomonas aeruginosa [5] = assay: Antibacterial activity against Pseudomonas aeruginosa ATCC 27853 measured by Muller-Hinton broth based microdilution assay
Pseudomonas aeruginosa [6] = assay: Antibacterial activity against Pseudomonas aeruginosa measured by Muller-Hinton broth based microdilution assay
Staphylococcus aureus [7] = assay: Antibacterial activity against Staphylococcus aureus ATCC 25923 measured by Muller-Hinton broth based microdilution assay
Escherichia coli [8] = assay: Antibacterial activity against Escherichia coli ATCC 25922 measured by Muller-Hinton broth based microdilution assay
Acinetobacter baumannii = assay: Antibacterial activity against Acinetobacter baumannii measured by Muller-Hinton broth based microdilution assay

Row | SMILES | MIC (Enterococcus faecalis) [µg/mL] | MIC (Klebsiella pneumoniae) [µg/mL] | MIC (Staphylococcus aureus [1]) [µg/mL] | MIC (Escherichia coli [2]) [µg/mL] | MIC (Staphylococcus aureus [3]) [µg/mL] | MIC (Staphylococcus aureus [4]) [µg/mL] | MIC (Pseudomonas aeruginosa [5]) [µg/mL] | MIC (Pseudomonas aeruginosa [6]) [µg/mL] | MIC (Staphylococcus aureus [7]) [µg/mL] | MIC (Escherichia coli [8]) [µg/mL] | MIC (Acinetobacter baumannii) [µg/mL]
1 | O=C1c2cccc3c(N/N=C/c4cccs4)ccc(c23)C(=O)N1C(CO)CO | 16 (≈ 40.5 µM) | 4 (≈ 10.1 µM) | 4 (≈ 10.1 µM) | 32 (≈ 80.9 µM) | 64 (≈ 162 µM) | 8 (≈ 20.2 µM) | 32 (≈ 80.9 µM) | 64 (≈ 162 µM) | 64 (≈ 162 µM) | 32 (≈ 80.9 µM) | 64 (≈ 162 µM)
2 | O=C1c2cccc3c(N/N=C/c4nccs4)ccc(c23)C(=O)N1C(CO)CO | 32 (≈ 80.7 µM) | 64 (≈ 161 µM) | 32 (≈ 80.7 µM) | 32 (≈ 80.7 µM) | 64 (≈ 161 µM) | 32 (≈ 80.7 µM) | 16 (≈ 40.4 µM) | 32 (≈ 80.7 µM) | 16 (≈ 40.4 µM) | 32 (≈ 80.7 µM) | 32 (≈ 80.7 µM)
3 | O=C1c2cccc3c(N/N=C/c4ccc(Cl)cc4Cl)ccc(c23)C(=O)N1C(CO)CO | 64 (≈ 140 µM) | 128 (≈ 279 µM) | 32 (≈ 69.8 µM) | 256 (≈ 559 µM) | 32 (≈ 69.8 µM) | 8 (≈ 17.5 µM) | 128 (≈ 279 µM) | 128 (≈ 279 µM) | 8 (≈ 17.5 µM) | 256 (≈ 559 µM) | 128 (≈ 279 µM)
4 | O=C1c2cccc3c(N/N=C/c4ccncc4)ccc(c23)C(=O)N1C(CO)CO | 64 (≈ 164 µM) | 64 (≈ 164 µM) | 64 (≈ 164 µM) | 32 (≈ 82 µM) | 4 (≈ 10.2 µM) | 128 (≈ 328 µM) | 1 (≈ 2.56 µM) | 2 (≈ 5.12 µM) | 64 (≈ 164 µM) | 64 (≈ 164 µM) | 64 (≈ 164 µM)
5 | O=C1c2cccc3c(N/N=C/c4cccc(O)c4)ccc(c23)C(=O)N1C(CO)CO | 128 (≈ 316 µM) | 128 (≈ 316 µM) | 128 (≈ 316 µM) | 256 (≈ 631 µM) | 256 (≈ 631 µM) | 256 (≈ 631 µM) | 256 (≈ 631 µM) | 256 (≈ 631 µM) | 32 (≈ 78.9 µM) | 256 (≈ 631 µM) | 256 (≈ 631 µM)
6 | CCCCCCCCn1cc(/C=N/Nc2ccc3c4c(cccc24)C(=O)N(C(CO)CO)C3=O)c2ccccc21 | 64 (≈ 118 µM) | 16 (≈ 29.6 µM) | 64 (≈ 118 µM) | 32 (≈ 59.2 µM) | 32 (≈ 59.2 µM) | 64 (≈ 118 µM) | 64 (≈ 118 µM) | 128 (≈ 237 µM) | 16 (≈ 29.6 µM) | 128 (≈ 237 µM) | 64 (≈ 118 µM)
7 | CCn1cc(/C=N/Nc2ccc3c4c(cccc24)C(=O)N(C(CO)CO)C3=O)c2ccccc21 | 32 (≈ 70.1 µM) | 8 (≈ 17.5 µM) | 64 (≈ 140 µM) | 16 (≈ 35 µM) | 8 (≈ 17.5 µM) | 32 (≈ 70.1 µM) | 32 (≈ 70.1 µM) | 16 (≈ 35 µM) | 16 (≈ 35 µM) | 32 (≈ 70.1 µM) | 64 (≈ 140 µM)
8 | O=C1c2cccc3c(N/N=C/c4ccccc4F)ccc(c23)C(=O)N1C(CO)CO | 2 (≈ 4.91 µM) | 32 (≈ 78.5 µM) | 32 (≈ 78.5 µM) | 32 (≈ 78.5 µM) | 8 (≈ 19.6 µM) | 16 (≈ 39.3 µM) | 8 (≈ 19.6 µM) | 32 (≈ 78.5 µM) | 64 (≈ 157 µM) | 32 (≈ 78.5 µM) | 64 (≈ 157 µM)
9 | O=C1c2cccc3c(N/N=C/c4csc5ccccc45)ccc(c23)C(=O)N1C(CO)CO | 64 (≈ 144 µM) | 32 (≈ 71.8 µM) | 64 (≈ 144 µM) | 32 (≈ 71.8 µM) | 64 (≈ 144 µM) | 128 (≈ 287 µM) | 64 (≈ 144 µM) | 64 (≈ 144 µM) | 64 (≈ 144 µM) | 64 (≈ 144 µM) | 64 (≈ 144 µM)
10 | O=C1c2cccc3c(N/N=C/c4ccc(F)cc4F)ccc(c23)C(=O)N1C(CO)CO | 128 (≈ 301 µM) | 128 (≈ 301 µM) | 128 (≈ 301 µM) | 256 (≈ 602 µM) | 256 (≈ 602 µM) | 16 (≈ 37.6 µM) | 256 (≈ 602 µM) | 256 (≈ 602 µM) | 32 (≈ 75.2 µM) | 256 (≈ 602 µM) | 256 (≈ 602 µM)
11 | O=C1c2cccc3c(N/N=C/c4cc(Cl)ccc4O)ccc(c23)C(=O)N1C(CO)CO | 16 (≈ 36.4 µM) | 64 (≈ 146 µM) | 1 (≈ 2.27 µM) | 64 (≈ 146 µM) | 32 (≈ 72.8 µM) | 64 (≈ 146 µM) | 32 (≈ 72.8 µM) | 2 (≈ 4.55 µM) | 2 (≈ 4.55 µM) | 32 (≈ 72.8 µM) | 32 (≈ 72.8 µM)
12 | O=C1c2cccc3c(N/N=C/c4c[nH]c5ccccc45)ccc(c23)C(=O)N1C(CO)CO | 64 (≈ 149 µM) | 64 (≈ 149 µM) | 4 (≈ 9.34 µM) | 64 (≈ 149 µM) | 8 (≈ 18.7 µM) | 2 (≈ 4.67 µM) | 32 (≈ 74.7 µM) | 4 (≈ 9.34 µM) | 8 (≈ 18.7 µM) | 64 (≈ 149 µM) | 64 (≈ 149 µM)
13 | O=C1c2cccc3c(N/N=C/c4ccc(C(F)(F)F)cc4)ccc(c23)C(=O)N1C(CO)CO | 4 (≈ 8.74 µM) | 4 (≈ 8.74 µM) | 64 (≈ 140 µM) | 32 (≈ 70 µM) | 8 (≈ 17.5 µM) | 2 (≈ 4.37 µM) | 8 (≈ 17.5 µM) | 16 (≈ 35 µM) | 32 (≈ 70 µM) | 32 (≈ 70 µM) | 64 (≈ 140 µM)
14 | O=C(Cn1cc(/C=N/Nc2ccc3c4c(cccc24)C(=O)N(C(CO)CO)C3=O)c2ccccc21)N1CCOCC1 | 128 (≈ 230 µM) | 256 (≈ 461 µM) | 256 (≈ 461 µM) | 256 (≈ 461 µM) | 128 (≈ 230 µM) | 128 (≈ 230 µM) | 128 (≈ 230 µM) | 256 (≈ 461 µM) | 64 (≈ 115 µM) | 256 (≈ 461 µM) | 128 (≈ 230 µM)
15 | O=C1c2cccc3c(N/N=C/c4nc5ccccc5[nH]4)ccc(c23)C(=O)N1C(CO)CO | 64 (≈ 149 µM) | 32 (≈ 74.5 µM) | 64 (≈ 149 µM) | 8 (≈ 18.6 µM) | 32 (≈ 74.5 µM) | 128 (≈ 298 µM) | 64 (≈ 149 µM) | 16 (≈ 37.3 µM) | 64 (≈ 149 µM) | 32 (≈ 74.5 µM) | 64 (≈ 149 µM)
16 | O=C1c2cccc3c(N/N=C/c4cccc(F)c4)ccc(c23)C(=O)N1C(CO)CO | 32 (≈ 78.5 µM) | 2 (≈ 4.91 µM) | 32 (≈ 78.5 µM) | 64 (≈ 157 µM) | 16 (≈ 39.3 µM) | 64 (≈ 157 µM) | 32 (≈ 78.5 µM) | 32 (≈ 78.5 µM) | 64 (≈ 157 µM) | 64 (≈ 157 µM) | 64 (≈ 157 µM)
17 | O=C1c2cccc(O)c2C(=O)c2c(O)cc(/C=N/Nc3ccc4c5c(cccc35)C(=O)N(C(CO)CO)C4=O)cc21 | 64 (≈ 116 µM) | 32 (≈ 58 µM) | 64 (≈ 116 µM) | 8 (≈ 14.5 µM) | 32 (≈ 58 µM) | 128 (≈ 232 µM) | 64 (≈ 116 µM) | 16 (≈ 29 µM) | 64 (≈ 116 µM) | 32 (≈ 58 µM) | 64 (≈ 116 µM)
18 | O=C1c2cccc3c(N/N=C/c4ccccc4Cl)ccc(c23)C(=O)N1C(CO)CO | 64 (≈ 151 µM) | 16 (≈ 37.7 µM) | 64 (≈ 151 µM) | 128 (≈ 302 µM) | 64 (≈ 151 µM) | 8 (≈ 18.9 µM) | 32 (≈ 75.5 µM) | 16 (≈ 37.7 µM) | 32 (≈ 75.5 µM) | 64 (≈ 151 µM) | 64 (≈ 151 µM)
19 | CN[C@H](CC(C)C)C(=O)N[C@H]1C(=O)N[C@@H](CC(N)=O)C(=O)N[C@H]2C(=O)N[C@H]3C(=O)N[C@H](C(=O)N[C@H](C(=O)O)c4cc(O)cc(O)c4-c4cc3ccc4O)[C@H](O)c3ccc(c(Cl)c3)Oc3cc2cc(c3O[C@@H]2O[C@H](CO)[C@@H](O)[C@H](O)[C@H]2O[C@H]2C[C@](C)(N)[C@H](O)[C@H](C)O2)Oc2ccc(cc2Cl)[C@H]1O [VANCOMYCIN] | 1 (≈ 0.69 µM) | – | – | – | – | – | – | – | – | – | –
20 | O=C(O)c1cn(C2CC2)c2cc(N3CCNCC3)c(F)cc2c1=O [CIPROFLOXACIN] | 2 (≈ 6.04 µM) | 2 (≈ 6.04 µM) | 4 (≈ 12.1 µM) | – | 2 (≈ 6.04 µM) | 8 (≈ 24.1 µM) | – | – | 0.5 (≈ 1.51 µM) | – | 2 (≈ 6.04 µM)
